#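 Assay format: 96-well plates, 48-hour exposure. The concentration for full growth arrest is given as TGI.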
# What was measured:
# Assay in all cases: NCI tumour cell line growth inhibition, 48 h
# [1] = test system: UACC-257 melanoma
# [2] = test system: DMS 273 small cell lung
# [3] = test system: OVCAR-5 ovarian
# [4] = test system: HCT-15 colon
# [5] = test system: SF-295 CNS
# [6] = test system: MOLT-4 leukemia
# [7] = test system: UACC-62 melanoma
# [8] = test system: IGROV1 ovarian
# [9] = test system: SK-MEL-5 melanoma
# [10] = test system: CAKI-1 renal
# [11] = test system: MALME-3M melanoma
# [12] = test system: SNB-75 CNS
# [13] = test system: P388 leukemia
# [14] = test system: SN12K1 renal
# [15] = test system: A498 renal
# [16] = test system: XF 498 CNS
# [17] = test system: CCRF-CEM leukemia
# [18] = test system: SNB-78 CNS
# [19] = test system: P388/ADR leukemia
# [20] = test system: HCC-2998 colon
# [21] = test system: RPMI-8226 leukemia
# [22] = test system: HL-60(TB) leukemia
# [23] = test system: NCI-H522 lung
# [24] = test system: SNB-19 CNS
# [25] = test system: OVCAR-8 ovarian
# [26] = test system: COLO 205 colon
# [27] = test system: LOX IMVI melanoma
# [28] = test system: HCT-116 colon
# [29] = test system: SK-MEL-2 melanoma
# [30] = test system: NCI-H23 lung
# [31] = test system: HOP-18 NSCLC
# [32] = test system: K-562 leukemia
# [33] = test system: OVCAR-3 ovarian
# [34] = test system: HOP-92 NSCLC
# [35] = test system: KM12 colon
# [36] = test system: NCI-H226 lung
# [37] = test system: M19-MEL melanoma
# [38] = test system: SW-620 colon
# [39] = test system: SF-539 CNS
# [40] = test system: HOP-62 NSCLC
# [41] = test system: NCI/ADR-RES ovarian
# [42] = test system: OVCAR-4 ovarian
# [43] = test system: DMS 114 small cell lung
# [44] = test system: NCI-H460 lung
# [45] = test system: SF-268 CNS
# [46] = test system: A549 NSCLC
# [47] = test system: RXF 393 renal
# [48] = test system: DLD-1 colon
# [49] = test system: MCF7 breast
# [50] = test system: UO-31 renal
# [51] = test system: SK-MEL-28 melanoma
# [52] = test system: EKVX NSCLC
# [53] = test system: SK-OV-3 ovarian
# [54] = test system: HT29 colon
# [55] = test system: U251 CNS
# [56] = test system: KM20L2 colon
# [57] = test system: SN12C renal
# [58] = test system: RXF-631 renal
# [59] = test system: 786-0 renal
# [60] = test system: TK-10 renal
# [61] = test system: SR leukemia
# [62] = test system: ACHN renal
# [63] = test system: M14 melanoma
# [64] = test system: LXFL 529 NSCLC
smiles,measurement,setting,value
CN(C)CCOc1cc2c(c3ccccc13)-c1ccccc1C2O (stereo unspecified),TGI,[1],29.4 µM
same,TGI,[2],29 µM
same,TGI,[3],17.6 µM
same,TGI,[4],25.5 µM
same,TGI,[5],48.7 µM
same,TGI,[6],14.5 µM
same,TGI,[7],31.5 µM
same,TGI,[8],32.4 µM
same,TGI,[9],29.1 µM
same,TGI,[10],26.7 µM
same,TGI,[11],34.8 µM
same,TGI,[12],24.7 µM
same,TGI,[13],> 100 µM
same,TGI,[14],19.5 µM
same,TGI,[15],29.8 µM
same,TGI,[16],25.7 µM
same,TGI,[17],33.1 µM
same,TGI,[18],31.6 µM
same,TGI,[19],33.3 µM
same,TGI,[20],28.2 µM
same,TGI,[21],31.2 µM
same,TGI,[22],26.6 µM
same,TGI,[23],30.7 µM
same,TGI,[24],20.2 µM
same,TGI,[25],24.7 µM
same,TGI,[26],27.4 µM
same,TGI,[27],23.9 µM
same,TGI,[28],26.9 µM
same,TGI,[29],31.4 µM
same,TGI,[30],32.2 µM
same,TGI,[31],29.5 µM
same,TGI,[32],38 µM
same,TGI,[33],30.1 µM
same,TGI,[34],19.5 µM
same,TGI,[35],29.5 µM
same,TGI,[36],29.1 µM
same,TGI,[37],30.9 µM
same,TGI,[38],24.8 µM
same,TGI,[39],27.5 µM
same,TGI,[40],29 µM
same,TGI,[41],19.5 µM
same,TGI,[42],32.9 µM
same,TGI,[43],26.2 µM
same,TGI,[44],22 µM
same,TGI,[45],28.3 µM
same,TGI,[46],29.3 µM
same,TGI,[47],10.1 µM
same,TGI,[48],30.2 µM
same,TGI,[49],28.3 µM
same,TGI,[50],25.2 µM
same,TGI,[51],30.2 µM
same,TGI,[52],28.2 µM
same,TGI,[53],30.1 µM
same,TGI,[54],27.8 µM
same,TGI,[55],28.9 µM
same,TGI,[56],29.9 µM
same,TGI,[57],26.9 µM
C[C@]12CC[C@H](O)CC1=CC[C@@H]1C2CC[C@]2(C)C(=O)NC(=O)CC12 (stereo partly specified),TGI,[1],> 100 µM
same,TGI,[2],> 100 µM
same,TGI,[3],> 100 µM
same,TGI,[4],> 100 µM
same,TGI,[5],> 100 µM
same,TGI,[6],> 100 µM
same,TGI,[7],> 100 µM
same,TGI,[8],> 100 µM
same,TGI,[9],> 100 µM
same,TGI,[10],> 100 µM
same,TGI,[11],> 100 µM
same,TGI,[12],> 100 µM
same,TGI,[58],> 100 µM
same,TGI,[15],> 100 µM
same,TGI,[16],> 100 µM
same,TGI,[17],> 100 µM
same,TGI,[18],> 100 µM
same,TGI,[20],> 100 µM
same,TGI,[21],89.8 µM
same,TGI,[22],> 100 µM
same,TGI,[59],> 100 µM
same,TGI,[23],> 100 µM
same,TGI,[24],> 100 µM
same,TGI,[25],> 100 µM
same,TGI,[26],> 100 µM
same,TGI,[27],> 100 µM
same,TGI,[28],> 100 µM
same,TGI,[29],> 100 µM
same,TGI,[30],> 100 µM
same,TGI,[60],> 100 µM
same,TGI,[31],> 100 µM
same,TGI,[61],> 100 µM
same,TGI,[32],92.1 µM
same,TGI,[33],> 100 µM
same,TGI,[34],> 100 µM
same,TGI,[35],> 100 µM
same,TGI,[36],> 100 µM
same,TGI,[37],> 100 µM
same,TGI,[38],> 100 µM
same,TGI,[39],> 100 µM
same,TGI,[62],> 100 µM
same,TGI,[40],> 100 µM
same,TGI,[42],> 100 µM
same,TGI,[43],> 100 µM
same,TGI,[44],> 100 µM
same,TGI,[45],> 100 µM
same,TGI,[46],> 100 µM
same,TGI,[47],> 100 µM
same,TGI,[48],> 100 µM
same,TGI,[63],> 100 µM
same,TGI,[64],> 100 µM
same,TGI,[50],> 100 µM
same,TGI,[51],> 100 µM
same,TGI,[52],> 100 µM
same,TGI,[53],> 100 µM
same,TGI,[54],> 100 µM
same,TGI,[55],> 100 µM
same,TGI,[56],> 100 µM
same,TGI,[57],> 100 µM
CC(=O)c1ccccc1NC(=O)C(=O)C(C(=O)c1ccccc1-c1ccccc1)C1OC(=O)c2ccccc21 (stereo unspecified),TGI,[1],32.3 µM
same,TGI,[2],> 100 µM
same,TGI,[3],64.9 µM
same,TGI,[4],34.9 µM
same,TGI,[5],52.4 µM
same,TGI,[6],93 µM
same,TGI,[7],38.8 µM
same,TGI,[8],54.3 µM
same,TGI,[9],33.8 µM
same,TGI,[10],> 100 µM
same,TGI,[11],34.3 µM
same,TGI,[12],51.7 µM
same,TGI,[58],> 100 µM
same,TGI,[15],38.2 µM
same,TGI,[16],24.3 µM
same,TGI,[17],> 100 µM
same,TGI,[18],> 100 µM
same,TGI,[20],30.9 µM
same,TGI,[21],> 100 µM
same,TGI,[22],81.2 µM
same,TGI,[59],34.3 µM
same,TGI,[23],31 µM
same,TGI,[24],58.9 µM
same,TGI,[25],47.9 µM
same,TGI,[26],46.1 µM
same,TGI,[27],37.7 µM
same,TGI,[28],32.5 µM
same,TGI,[29],40.5 µM
same,TGI,[30],31 µM
same,TGI,[60],32 µM
same,TGI,[31],36.1 µM
same,TGI,[61],88.9 µM
same,TGI,[32],> 100 µM
same,TGI,[33],48.1 µM
same,TGI,[35],34.3 µM
same,TGI,[36],36.2 µM
same,TGI,[37],48.2 µM
same,TGI,[38],86.5 µM
same,TGI,[39],37.2 µM
same,TGI,[62],51.2 µM
same,TGI,[40],44.9 µM
same,TGI,[42],> 100 µM
same,TGI,[44],35.3 µM
same,TGI,[46],80.4 µM
same,TGI,[47],25 µM
same,TGI,[48],48 µM
same,TGI,[63],35.4 µM
same,TGI,[64],31.3 µM
same,TGI,[50],32.8 µM
same,TGI,[52],65 µM
same,TGI,[53],> 100 µM
same,TGI,[54],56.1 µM
same,TGI,[55],30.3 µM
same,TGI,[56],53 µM
same,TGI,[57],43.5 µM

# Reference: PubChem BioAssay (NCI)
